Data as given in the NIST ThermoML archive (doi:10.1021/je200822w).
± gives the expanded uncertainty stated by the source.

Key:
[1] = activity coefficient (dimensionless); of the first substance listed, at infinite dilution; xn = mol fraction of the nth substance listed; settings: 101 kPa, Liquid, Chromatography, x1 = 0
[2] = 101.33 kPa, Liquid

Row | Compound | activity coefficient ([1]; 318.15 K) | activity coefficient ([1]; 323.15 K) | activity coefficient ([1]; 333.15 K) | activity coefficient ([1]; 343.15 K) | activity coefficient ([1]; 353.13 K) | activity coefficient ([1]; 353.15 K) | mass density ([2]; 283.15 K) | mass density ([2]; 293.15 K) | mass density ([2]; 303.15 K) | mass density ([2]; 313.15 K) | mass density ([2]; 323.15 K) | mass density ([2]; 333.15 K) | mass density ([2]; 343.15 K)
1 | COCCOC [1,2-dimethoxyethane] + CCCC[N+]1(C)CCCC1.N#CN=C=[N-] | 1.19 ± 0.08 | 1.23 ± 0.08 | 1.31 ± 0.09 | 1.39 ± 0.09 | 1.46 ± 0.1 |  |  |  |  |  |  |  | 
2 | Cc1cccc(C)c1 [1,3-dimethylbenzene] + CCCC[N+]1(C)CCCC1.N#CN=C=[N-] | 3.46 ± 0.24 | 3.5 ± 0.24 | 3.56 ± 0.24 | 3.61 ± 0.25 |  | 3.67 ± 0.25 |  |  |  |  |  |  | 
3 | FC(F)(F)C(Cl)Br (configuration not stated) [1-bromo-1-chloro-2,2,2-trifluoroethane] + CCCC[N+]1(C)CCCC1.N#CN=C=[N-] | 0.568 ± 0.041 | 0.606 ± 0.042 | 0.694 ± 0.047 | 0.776 ± 0.051 |  | 0.866 ± 0.055 |  |  |  |  |  |  | 
4 | CCCC[N+]1(C)CCCC1.N#CN=C=[N-] [1-butyl-1-methylpyrrolidinium dicyanamide] |  |  |  |  |  |  | 1021.93 ± 0.57 kg/m3 | 1016.26 ± 0.55 kg/m3 | 1010.64 ± 0.53 kg/m3 | 1005.08 ± 0.51 kg/m3 | 999.56 ± 0.5 kg/m3 | 994.1 ± 0.51 kg/m3 | 988.69 ± 0.53 kg/m3
5 | COC(C)(C)C [2-methoxy-2-methylpropane] + CCCC[N+]1(C)CCCC1.N#CN=C=[N-] | 6.04 ± 0.41 | 6.13 ± 0.42 | 6.29 ± 0.43 | 6.4 ± 0.44 |  | 6.53 ± 0.45 |  |  |  |  |  |  | 
6 | CC(C)=O [acetone] + CCCC[N+]1(C)CCCC1.N#CN=C=[N-] | 0.905 ± 0.057 | 0.917 ± 0.058 | 0.942 ± 0.059 | 0.963 ± 0.061 |  | 0.986 ± 0.062 |  |  |  |  |  |  | 
7 | CC#N [acetonitrile] + CCCC[N+]1(C)CCCC1.N#CN=C=[N-] | 0.67 ± 0.045 | 0.676 ± 0.046 | 0.68 ± 0.046 | 0.684 ± 0.046 |  | 0.687 ± 0.046 |  |  |  |  |  |  | 
8 | c1ccccc1 [benzene] + CCCC[N+]1(C)CCCC1.N#CN=C=[N-] | 1.41 ± 0.09 | 1.42 ± 0.09 | 1.46 ± 0.1 | 1.49 ± 0.1 |  | 1.53 ± 0.1 |  |  |  |  |  |  | 
9 | CCC(C)=O [butanone] + CCCC[N+]1(C)CCCC1.N#CN=C=[N-] | 1.26 ± 0.08 | 1.27 ± 0.08 | 1.32 ± 0.09 | 1.33 ± 0.09 |  | 1.35 ± 0.09 |  |  |  |  |  |  | 
10 | C1CCCCC1 [cyclohexane] + CCCC[N+]1(C)CCCC1.N#CN=C=[N-] | 21.1 ± 1.4 | 20.6 ± 1.4 | 19.5 ± 1.3 | 18.5 ± 1.3 |  | 17.7 ± 1.2 |  |  |  |  |  |  | 
11 | ClCCl [dichloromethane] + CCCC[N+]1(C)CCCC1.N#CN=C=[N-] | 0.541 ± 0.04 | 0.558 ± 0.04 | 0.591 ± 0.042 | 0.623 ± 0.043 |  | 0.655 ± 0.045 |  |  |  |  |  |  | 
12 | CC(C)OC(C)C [diisopropyl ether] + CCCC[N+]1(C)CCCC1.N#CN=C=[N-] | 17.9 ± 1.2 | 17.9 ± 1.2 | 18 ± 1.2 | 17.9 ± 1.2 |  | 17.9 ± 1.2 |  |  |  |  |  |  | 
13 | C[N+](=O)[O-] [nitromethane] + CCCC[N+]1(C)CCCC1.N#CN=C=[N-] | 0.592 ± 0.042 | 0.596 ± 0.042 | 0.604 ± 0.042 | 0.609 ± 0.043 |  | 0.615 ± 0.043 |  |  |  |  |  |  | 
14 | ClC(Cl)(Cl)Cl [tetrachloromethane] + CCCC[N+]1(C)CCCC1.N#CN=C=[N-] | 2.04 ± 0.14 | 2.11 ± 0.14 | 2.25 ± 0.15 | 2.38 ± 0.16 |  | 2.5 ± 0.17 |  |  |  |  |  |  | 
15 | Cc1ccccc1 [toluene] + CCCC[N+]1(C)CCCC1.N#CN=C=[N-] | 2.17 ± 0.15 | 2.2 ± 0.15 | 2.26 ± 0.15 | 2.3 ± 0.16 |  | 2.35 ± 0.16 |  |  |  |  |  |  | 

The remaining lines, values ahead:

Row | activity coefficient ([1]; 318.15 K) | activity coefficient ([1]; 323.15 K) | activity coefficient ([1]; 333.15 K) | activity coefficient ([1]; 343.15 K) | activity coefficient ([1]; 353.13 K) | activity coefficient ([1]; 353.15 K) | mass density ([2]; 283.15 K) | mass density ([2]; 293.15 K) | mass density ([2]; 303.15 K) | mass density ([2]; 313.15 K) | mass density ([2]; 323.15 K) | mass density ([2]; 333.15 K) | mass density ([2]; 343.15 K) | Compound
16 | 1.26 ± 0.08 | 1.27 ± 0.08 | 1.29 ± 0.08 | 1.31 ± 0.09 |  | 1.33 ± 0.09 |  |  |  |  |  |  |  | COC(=O)OC [dimethyl carbonate] + CCCC[N+]1(C)CCCC1.N#CN=C=[N-]
17 | 0.55 ± 0.04 | 0.545 ± 0.04 | 0.538 ± 0.039 | 0.53 ± 0.039 |  | 0.525 ± 0.039 |  |  |  |  |  |  |  | CCO [ethanol] + CCCC[N+]1(C)CCCC1.N#CN=C=[N-]
18 | 2.33 ± 0.16 | 2.35 ± 0.16 | 2.39 ± 0.16 | 2.43 ± 0.17 |  | 2.47 ± 0.17 |  |  |  |  |  |  |  | CCOC(C)=O [ethyl acetate] + CCCC[N+]1(C)CCCC1.N#CN=C=[N-]
19 | 3.52 ± 0.24 | 3.55 ± 0.24 | 3.6 ± 0.25 | 3.65 ± 0.25 |  | 3.69 ± 0.25 |  |  |  |  |  |  |  | CCc1ccccc1 [ethylbenzene] + CCCC[N+]1(C)CCCC1.N#CN=C=[N-]
20 | 50.1 ± 3.4 | 48.4 ± 3.3 | 45.1 ± 3.1 | 42.2 ± 2.9 |  | 39.6 ± 2.7 |  |  |  |  |  |  |  | CCC1CCCCC1 [ethylcyclohexane] + CCCC[N+]1(C)CCCC1.N#CN=C=[N-]
21 | 76 ± 5.2 | 73.6 ± 5 | 68.9 ± 4.7 | 64.7 ± 4.4 |  | 60.9 ± 4.2 |  |  |  |  |  |  |  | CCCCCCC [heptane] + CCCC[N+]1(C)CCCC1.N#CN=C=[N-]
22 | 0.344 ± 0.032 | 0.344 ± 0.032 | 0.345 ± 0.032 | 0.347 ± 0.032 |  | 0.348 ± 0.032 |  |  |  |  |  |  |  | CO [methanol] + CCCC[N+]1(C)CCCC1.N#CN=C=[N-]
23 | 1.51 ± 0.1 | 1.53 ± 0.1 | 1.56 ± 0.1 | 1.59 ± 0.11 |  | 1.63 ± 0.11 |  |  |  |  |  |  |  | COC(C)=O [methyl ethanoate] + CCCC[N+]1(C)CCCC1.N#CN=C=[N-]
24 | 32.5 ± 2.2 | 31.7 ± 2.2 | 30 ± 2.1 | 28.4 ± 1.9 |  | 27.1 ± 1.9 |  |  |  |  |  |  |  | CC1CCCCC1 [methylcyclohexane] + CCCC[N+]1(C)CCCC1.N#CN=C=[N-]
25 | 47.3 ± 3.2 | 46.3 ± 3.2 | 44.4 ± 3 | 42.4 ± 2.9 |  | 40.8 ± 2.8 |  |  |  |  |  |  |  | C=CCCCCCC [oct-1-ene] + CCCC[N+]1(C)CCCC1.N#CN=C=[N-]
26 | 115 ± 8 | 110 ± 8 | 102 ± 7 | 95.2 ± 6.5 |  | 89.2 ± 6.1 |  |  |  |  |  |  |  | CCCCCCCC [octane] + CCCC[N+]1(C)CCCC1.N#CN=C=[N-]
27 | 0.688 ± 0.046 | 0.68 ± 0.046 | 0.668 ± 0.045 | 0.656 ± 0.045 |  | 0.647 ± 0.044 |  |  |  |  |  |  |  | CCCO [propan-1-ol] + CCCC[N+]1(C)CCCC1.N#CN=C=[N-]
28 | 0.771 ± 0.05 | 0.761 ± 0.05 | 0.746 ± 0.049 | 0.733 ± 0.049 |  | 0.724 ± 0.048 |  |  |  |  |  |  |  | CC(C)O [propan-2-ol] + CCCC[N+]1(C)CCCC1.N#CN=C=[N-]
29 | 1.36 ± 0.09 | 1.38 ± 0.09 | 1.42 ± 0.09 | 1.46 ± 0.1 |  | 1.49 ± 0.1 |  |  |  |  |  |  |  | C1CCOC1 [tetrahydrofuran] + CCCC[N+]1(C)CCCC1.N#CN=C=[N-]
30 | 0.851 ± 0.055 | 0.868 ± 0.055 | 0.901 ± 0.057 | 0.931 ± 0.059 |  | 0.962 ± 0.06 |  |  |  |  |  |  |  | c1ccsc1 [thiophene] + CCCC[N+]1(C)CCCC1.N#CN=C=[N-]
31 | 0.391 ± 0.034 | 0.411 ± 0.034 | 0.453 ± 0.036 | 0.496 ± 0.038 |  | 0.54 ± 0.039 |  |  |  |  |  |  |  | ClC(Cl)Cl [trichloromethane] + CCCC[N+]1(C)CCCC1.N#CN=C=[N-]
